Earlier results on one substance are cited in patent publication US20240423961A1, “1H-1,2,3-TRIAZOLE-4-CARBOXYLIC ACIDS FOR TREATMENT OF HYPEROXALURIA AND KIDNEY STONES” (CANTERO THERAPEUTICS, INC., priority 2021, published 2024).

Values joined by “and” are separate entries in the source; they are usually repeats but may differ in a detail not shown here. Equal values may be shown once. Read-outs that look alike come from different tables or passages of the source.

The test system of the data set is glycolate oxidase (GO). Conditions: cited from earlier work.

Regarding lumasiran, the “measured peak plasma glycolate relative to baseline levels” value reads like this: (single subcutaneous dose 0.3 mg/kg) around 1.6 fold; (single subcutaneous dose 1.0 mg/kg) around 2.5 fold; (single subcutaneous dose 3.0 mg/kg, 3 mg/kg) ~3.1 fold and ~3 fold; (single subcutaneous dose 6.0 mg/kg) around 7.3 fold.
